Here are results for 29 molecules from patent US10144709B2, “Piperidine compounds, pharmaceutical composition comprising the same and its use” (SK BIOPHARMACEUTICALS CO., LTD., priority 2008, dated 2018).

Counter-ions that a name gives are not always drawn.

This assay relates to ICR CD strain male mice. Nature of the assay: Gastric emptying enhancing activity (phenol red meal). In kind it is in vivo. Particulars: Mus musculus, ip, 0.25 h, 3.0 mg/kg i.p., gastric emptying at 15 min after test meal, increase vs vehicle. How it is done: ICR CD strain male mice (body weight, 25˜30 g; 8 mice per one group) were fasted for 24 h but allowed free access to water until 3 hours before the test.
Compounds to be tested for promoting GI motility were injected intraperitoneally or given orally at 30 min or 60 min prior to phenol red meal administration. Fifteen (15) min after administration of a test meal (0.5% Phenol red in 1.5% methylcellulose solution), mice were sacrificed and the stomach (pylorus˜cardia) was removed and collected to vial. The stomach was homogenized with its contents in 0.1N NaOH and the mixture was centrifuged (700*g) for 20 min. 2.5 mL of the supernatant was added to 0.25 mL of trichloroacetic acid solution (20% w/v) to precipitate proteins. After centrifuging (2600*g) for 20 min, 0.5 mL of the supernatant was added to 0.25 mL of 1N NaOH. The mixture was homogenized and its absorbance (Abs) was read at 560 nm.
In each experiment, one group was sacrificed just after the administration of the test meal and was considered as a standard (0% emptying). The gastric emptying (GE) at the 15 min period was calculated according to the following formula. GE (%)=(1−Abstest/Absstandard)×100 Increase (%)=(GE %test−GE %vehicle)/GE %vehicle*100

Take `COc1cc(N)c(Cl)cc1C(=O)NCC1CCN(CC(O)c2ccc(F)cc2)CC1` (centres unmarked) [Example 2, 4-amino-5-chloro-N-[[1-[2-(4-fluorophenyl)-2-hydroxyethyl]piperidin-4-yl]methyl]-2-methoxybenzamide; hydrochloride]: the change in vivo at 3 mg/kg was determined as 42.6%.

`COc1cc(N)c(Cl)cc1C(=O)NCC1CCN(CC(O)c2ccc(C)cc2)CC1` (centres unmarked) [Example 3, 4-amino-5-chloro-N-[[1-[2-hydroxy-2-(4-methylphenyl)ethyl]piperidin-4-yl]methyl]-2-methoxybenzamide; hydrochloride]: the change in vivo at 3 mg/kg came to 71.1%.

As to `COc1ccc(C(O)CN2CCC(CNC(=O)c3cc(Cl)c(N)cc3OC)CC2)cc1` (centres unmarked) [Example 4, 4-amino-5-chloro-N-[[1-[2-hydroxy-2-(4-methoxyphenyl)ethyl]piperidin-4-yl]methyl]-2-methoxybenzamide; hydrochloride], the change in vivo at 3 mg/kg came to 74.1%.

`COc1cc(N)c(Cl)cc1C(=O)NCC1CCN(CC(O)c2ccc(C#N)cc2)CC1` (centres unmarked) [Example 5, 4-amino-5-chloro-N-[[1-[2-(4-cyanophenyl)-2-hydroxyethyl]piperidin-4-yl]methyl]-2-methoxybenzamide; hydrochloride]: the change in vivo at 3 mg/kg was 76.1%.

In the case of `COc1cc(N)c(Cl)cc1C(=O)NCC1CCN(CC(O)c2ccccc2OC)CC1` (centres unmarked) [Example 8, 4-amino-5-chloro-N-[[1-[2-hydroxy-2-(2-methoxyphenyl)ethyl]piperidin-4-yl]methyl]-2-methoxybenzamide; hydrochloride], the change in vivo at 3 mg/kg came to 51.6%.

Consider `COc1cccc(C(O)CN2CCC(CNC(=O)c3cc(Cl)c(N)cc3OC)CC2)c1` (centres unmarked) [Example 9, 4-amino-5-chloro-N-[[1-[2-hydroxy-2-(3-methoxyphenyl)ethyl]piperidin-4-yl]methyl]-2-methoxybenzamide; hydrochloride], for which the change in vivo at 3 mg/kg is 55.8%.

In the case of `COc1cc(N)c(Cl)cc1C(=O)NCC1CCN(CC(O)c2ccccc2Cl)CC1` (centres unmarked) [Example 13, 4-amino-5-chloro-N-[[1-[2-(2-chlorophenyl)-2-hydroxyethyl]piperidin-4-yl]methyl]-2-methoxybenzamide; hydrochloride], the change in vivo at 3 mg/kg amounted to 14%.

With `COc1ccc(OC)c(C(O)CN2CCC(CNC(=O)c3cc(Cl)c(N)cc3OC)CC2)c1` (centres unmarked) [Example 15, 4-amino-5-chloro-N-[[1-[2-(2,5-dimethoxyphenyl)-2-hydroxyethyl]piperidin-4-yl]methyl]-2-methoxybenzamide; hydrochloride], the change in vivo at 3 mg/kg is 78.7%.

As to `COc1cc(N)c(Cl)cc1C(=O)NCC1CCN(CC(O)c2ccc(OC(F)F)cc2)CC1` (centres unmarked) [Example 16, 4-amino-5-chloro-N-[[1-[2-[4-(difluoromethoxy)phenyl]-2-hydroxyethyl]piperidin-4-yl]methyl]-2-methoxybenzamide; hydrochloride], the change in vivo at 3 mg/kg was 53.6%.

With `COc1cc(N)c(Cl)cc1C(=O)NCC1CCN(CC(O)c2ccc(F)c(F)c2)CC1` (centres unmarked) [Example 17, 4-amino-5-chloro-N-[[1-[2-(3,4-difluorophenyl)-2-hydroxyethyl]piperidin-4-yl]methyl]-2-methoxybenzamide; hydrochloride], the change in vivo at 3 mg/kg was 22.1%.

As for `COc1cc(N)c(Cl)cc1C(=O)NCC1CCN(CC(NC(=O)O)c2ccc(C)cc2)CC1` (centres unmarked) [Example 24, [2-[4-[[(4-amino-5-chloro-2-methoxybenzoyl)amino]methyl]piperidin-1-yl]-1-(4-methylphenyl)ethyl]carbamate; hydrochloride], the change in vivo at 3 mg/kg worked out at 71.1%.

Take `COc1cc(N)c(Cl)cc1C(=O)NCC1CCN(CC(NC(=O)O)c2ccccc2Cl)CC1` (centres unmarked) [Example 29, [2-[4-[[(4-amino-5-chloro-2-methoxybenzoyl)amino]methyl]piperidin-1-yl]-1-(2-chlorophenyl)ethyl]carbamate; hydrochloride]: the change in vivo at 3 mg/kg was determined as 61.3%.

In the case of `COc1cc(N)c(Cl)cc1C(=O)NCC1CCN(CC(NC(=O)O)c2ccc(OC(F)F)cc2)CC1` (centres unmarked) [Example 32, [2-[4-[[(4-amino-5-chloro-2-methoxybenzoyl)amino]methyl]piperidin-1-yl]-1-[4-(difluoromethoxy)phenyl]ethyl]carbamate; hydrochloride], the change in vivo at 3 mg/kg stood at 40%.

Take `COc1cc(N)c(Cl)cc1C(=O)NCC1CCN(CCC(O)c2ccccc2)CC1` (centres unmarked) [Example 36, 4-amino-5-chloro-N-[[1-(3-hydroxy-3-phenylpropyl)piperidin-4-yl]methyl]-2-methoxybenzamide; hydrochloride]: the change in vivo at 3 mg/kg was found to be 55.2%.

Consider `COc1cc(N)c(Cl)cc1C(=O)NCC1CCN(CCC(O)c2ccc(F)cc2)CC1` (centres unmarked) [Example 37, 4-amino-5-chloro-N-[[1-[3-(4-fluorophenyl)-3-hydroxypropyl]piperidin-4-yl]methyl]-2-methoxybenzamide; hydrochloride], for which the change in vivo at 3 mg/kg was determined as 70.7%.

For `COc1cc(N)c(Cl)cc1C(=O)NCC1CCN(CCC(O)c2ccc(Cl)cc2)CC1` (centres unmarked) [Example 38, 4-amino-5-chloro-N-[[1-[3-(4-chlorophenyl)-3-hydroxypropyl]piperidin-4-yl]methyl]-2-methoxybenzamide; hydrochloride], the change in vivo at 3 mg/kg is 49.1%.

In the case of `COc1cc(N)c(Cl)cc1C(=O)NCC1CCN(CCC(O)c2ccc(C)cc2)CC1` (centres unmarked) [Example 39, 4-amino-5-chloro-N-[[1-[3-hydroxy-3-(4-methylphenyl)propyl]piperidin-4-yl]methyl]-2-methoxybenzamide; hydrochloride], the change in vivo at 3 mg/kg was 40%.

Turning to `COc1ccc(C(O)CCN2CCC(CNC(=O)c3cc(Cl)c(N)cc3OC)CC2)cc1` (centres unmarked) [Example 40, 4-amino-5-chloro-N-[[1-[3-hydroxy-3-(4-methoxyphenyl)propyl]piperidin-4-yl]methyl]-2-methoxybenzamide; hydrochloride], the change in vivo at 3 mg/kg stood at 51.6%.

As for `COc1cc(N)c(Cl)cc1C(=O)NCC1CCN(CCC(O)c2ccccc2Cl)CC1` (centres unmarked) [Example 41, 4-amino-5-chloro-N-[[1-[3-(2-chlorophenyl)-3-hydroxypropyl]piperidin-4-yl]methyl]-2-methoxybenzamide; hydrochloride], the change in vivo at 3 mg/kg came out at 24.3%.

With `COc1cc(N)c(Cl)cc1C(=O)NCC1CCN(CCC(O)c2cccc(Cl)c2)CC1` (centres unmarked) [Example 42, 4-amino-5-chloro-N-[[1-[3-(3-chlorophenyl)-3-hydroxypropyl]piperidin-4-yl]methyl]-2-methoxybenzamide; hydrochloride], the change in vivo at 3 mg/kg is 42.7%.

In the case of `COc1cc(N)c(Cl)cc1C(=O)NCC1CCN(CCC(O)c2ccccc2F)CC1` (centres unmarked) [Example 43, 4-amino-5-chloro-N-[[1-[3-(2-fluorophenyl)-3-hydroxypropyl]piperidin-4-yl]methyl]-2-methoxybenzamide; hydrochloride], the change in vivo at 3 mg/kg stood at 46.1%.

With `COc1cc(N)c(Cl)cc1C(=O)NCC1CCN(CCC(O)c2cccc(Cl)c2Cl)CC1` (centres unmarked) [Example 45, 4-amino-5-chloro-N-[[1-[3-(2,3-dichlorophenyl)-3-hydroxypropyl]piperidin-4-yl]methyl]-2-methoxybenzamide; hydrochloride], the change in vivo at 3 mg/kg amounted to 51.4%.

For the molecule `COc1cc(N)c(Cl)cc1C(=O)NCC1CCN(CCC(O)c2ccc(Cl)cc2Cl)CC1` (centres unmarked) [Example 46, 4-amino-5-chloro-N-[[1-[3-(2,4-dichlorophenyl)-3-hydroxypropyl]piperidin-4-yl]methyl]-2-methoxybenzamide; hydrochloride], the change in vivo at 3 mg/kg is 45.9%.

In the case of `COc1cc(N)c(Cl)cc1C(=O)NCC1CCN(CCC(O)c2ccc(Cl)c(Cl)c2)CC1` (centres unmarked) [Example 47, 4-amino-5-chloro-N-[[1-[3-(3,4-dichlorophenyl)-3-hydroxypropyl]piperidin-4-yl]methyl]-2-methoxybenzamide; hydrochloride], the change in vivo at 3 mg/kg was found to be 25.9%.

For the molecule `COc1cc(N)c(Cl)cc1C(=O)NCC1CCN(CCC(O)c2ccc(C(C)C)cc2)CC1` (centres unmarked) [Example 48, 4-amino-5-chloro-N-[[1-[3-(4-isopropylphenyl)-3-hydroxypropyl]piperidin-4-yl]methyl]-2-methoxybenzamide; hydrochloride], the change in vivo at 3 mg/kg stood at 3.5%.

Take `COc1cccc(C(O)CCN2CCC(CNC(=O)c3cc(Cl)c(N)cc3OC)CC2)c1` (centres unmarked) [Example 49, 4-amino-5-chloro-N-[[1-[3-(3-methoxyphenyl)-3-hydroxypropyl]piperidin-4-yl]methyl]-2-methoxybenzamide; hydrochloride]: the change in vivo at 3 mg/kg was found to be 17.8%.

Consider `COc1cc(N)c(Cl)cc1C(=O)NCC1CCN(CCC(O)c2cccs2)CC1` (centres unmarked) [Example 50, 4-amino-5-chloro-N-[[1-(3-hydroxy-3-thiophen-2-ylpropyl)piperidin-4-yl]methyl]-2-methoxybenzamide; hydrochloride], for which the change in vivo at 3 mg/kg amounted to 3.9%.

On to `COc1cc(N)c(Cl)cc1C(=O)NCC1CCN(CCC(O)Cc2ccc(F)cc2)CC1` (centres unmarked) [Example 51, 4-amino-5-chloro-N-[[1-[4-(4-fluorophenyl)-3-hydroxybutyl]piperidin-4-yl]methyl]-2-methoxybenzamide; hydrochloride], for which the change in vivo at 3 mg/kg is 122%.

As to `COc1cc(N)c(Cl)cc1C(=O)NCC1CCN(CCC(O)CCc2ccc(F)cc2)CC1` (centres unmarked) [Example 52, 4-amino-5-chloro-N-[[1-[5-(4-fluorophenyl)-3-hydroxypentyl]piperidin-4-yl]methyl]-2-methoxybenzamide; hydrochloride], the change in vivo at 3 mg/kg was determined as 131%.
